Biological target: T1, Ectonucleotide pyrophosphatase/phosphodiesterase 1 (ENPP1) (Homo sapiens, UniProt P22413)
T1 construct: Human recombinant ENPP1 (rENPP1)
T1 sequence (P22413 98-925 limits assumed): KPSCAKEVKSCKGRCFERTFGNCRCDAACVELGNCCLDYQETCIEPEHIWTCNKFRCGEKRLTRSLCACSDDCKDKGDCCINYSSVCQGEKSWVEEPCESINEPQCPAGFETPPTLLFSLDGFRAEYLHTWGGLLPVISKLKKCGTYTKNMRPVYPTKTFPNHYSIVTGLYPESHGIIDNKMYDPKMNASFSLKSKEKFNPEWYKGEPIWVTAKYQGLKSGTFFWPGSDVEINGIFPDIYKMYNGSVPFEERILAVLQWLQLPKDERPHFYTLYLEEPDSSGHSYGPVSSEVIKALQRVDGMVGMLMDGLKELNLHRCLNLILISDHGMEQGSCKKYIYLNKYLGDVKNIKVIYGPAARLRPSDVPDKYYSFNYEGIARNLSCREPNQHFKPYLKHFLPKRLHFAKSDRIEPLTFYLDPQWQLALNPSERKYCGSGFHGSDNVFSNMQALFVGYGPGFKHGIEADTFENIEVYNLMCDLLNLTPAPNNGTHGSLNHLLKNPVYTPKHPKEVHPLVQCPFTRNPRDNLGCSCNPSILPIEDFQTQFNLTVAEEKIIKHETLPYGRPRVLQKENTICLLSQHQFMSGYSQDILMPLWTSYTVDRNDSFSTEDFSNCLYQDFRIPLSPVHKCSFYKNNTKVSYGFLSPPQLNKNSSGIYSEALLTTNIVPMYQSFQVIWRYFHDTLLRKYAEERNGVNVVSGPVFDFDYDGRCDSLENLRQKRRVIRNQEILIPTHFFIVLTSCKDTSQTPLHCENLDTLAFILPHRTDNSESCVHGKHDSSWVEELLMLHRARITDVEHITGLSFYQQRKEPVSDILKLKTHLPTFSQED
Experiment: enzymatic assay with p-Nph-5'-TMP substrate (Ki […] with […]'[…]'-cGAMP and […] with p-NPh-5'-TMP also printed)
Format: biochemical

- IC50: 0.014 ± 0.002 µM
Substance: AVA-NP-695
